pEC50, pIC50: −log10 of the molar value.
Columns and labels:
[1] = system: TNFα production in LPS-stimulated human monocytes; test: Cot Monocyte TNFα Cell Based Assay; conditions: Homo sapiens, Monocyte, TNFα in LPS-stimulated human monocytes; read-out: EC50 TNF
How it was run: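 5,000 cells/well; cmpd 1 h, 37 °C, 0.5% DMSO final; LPS 50 pg/ml, 4 h, 37 °C; media TNFα by HTRF sandwich (cryptate/XL665), RT overnight; % control vs unstimulated/stimulated wells.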

[2] = molecular target: T1, human Cot catalytic domain (30-397 amino acids) (Homo sapiens, UniProt P41279); test: High Throughput Cot Biochemical Assay (KinEASE TR-FRET); conditions: Cot KinEASE TR-FRET (HTRF) biochemical assay, 400 μM ATP; read-out: IC50 HTRF
T1 construct: Purified recombinant human Cot catalytic domain (30-397 amino acids) was purchased from Cama Biosciences; purchased Cama Biosciences (so in the source)
T1 sequence (P41279 30-397): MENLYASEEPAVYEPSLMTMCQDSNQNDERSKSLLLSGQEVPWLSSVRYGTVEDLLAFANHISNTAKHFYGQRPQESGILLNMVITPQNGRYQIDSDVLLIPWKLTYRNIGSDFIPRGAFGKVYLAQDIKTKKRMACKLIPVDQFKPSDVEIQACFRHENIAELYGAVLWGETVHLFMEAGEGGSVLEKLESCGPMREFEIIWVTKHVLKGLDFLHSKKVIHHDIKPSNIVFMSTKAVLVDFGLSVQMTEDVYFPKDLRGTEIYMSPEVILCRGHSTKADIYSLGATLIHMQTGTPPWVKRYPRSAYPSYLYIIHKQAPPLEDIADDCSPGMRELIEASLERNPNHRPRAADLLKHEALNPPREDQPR
How it was run: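 First, purified human Cot (aa 30-397) at 5 nM phosphorylates an XL665-labeled STK3 peptide (1 μM) at 400 μM ATP, pH 7.0, 0.1% DMSO. Then a europium-conjugated phospho-specific antibody binds the product, giving the TR-FRET signal.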

| SMILES | pEC50 [1] | pIC50 [2] |
| --- | --- | --- |
| [2H][C@](Nc1cc(Cl)c2ncc(C#N)c(NC(CC#N)c3ccccc3)c2c1)(c1ccc(F)cc1)c1cn(-c2cccnc2)nn1 (stereo partly drawn) [Example 267, 8-chloro-4-((2-cyano-1-phenylethyl)amino)-6-(((S)-(4-fluorophenyl)(1-(pyridin-3-yl)-1H-1,2,3-triazol-4-yl)methyl-d)amino)quinoline-3-carbonitrile] | 6.71 | 8.15 |
| [2H][C@](Nc1cc(Cl)c2ncc(C#N)c(NCCC(C)C)c2c1)(c1ccc(F)cc1)c1cn(C2CC2)nn1 [Example 268, (S)-8-chloro-6-(((1-cyclopropyl-1H-1,2,3-triazol-4-yl)(4-fluorophenyl)methyl-d)amino)-4-(isopentylamino)quinoline-3-carbonitrile] | 5.54 | 6.78 |
| [2H][C@](Nc1cc(Cl)c2ncc(C#N)c(NCCC3CC3)c2c1)(c1ccc(F)cc1)c1cn(C2CC2)nn1 [Example 269, (S)-8-chloro-6-(((1-cyclopropyl-1H-1,2,3-triazol-4-yl)(4-fluorophenyl)methyl-d)amino)-4-((2-cyclopropylethyl)amino)quinoline-3-carbonitrile] | 5.34 | 6.60 |
| [2H][C@](Nc1cc(Cl)c2ncc(C#N)c(NCCc3ccccn3)c2c1)(c1ccc(F)cc1)c1cn(C2CC2)nn1 [Example 270, (S)-8-chloro-6-(((1-cyclopropyl-1H-1,2,3-triazol-4-yl)(4-fluorophenyl)methyl-d)amino)-4-((2-(pyridin-2-yl)ethyl)amino)quinoline-3-carbonitrile] | 5.64 | 7.02 |
| [2H][C@](Nc1cc(Cl)c2ncc(C#N)c(NCCc3cccnc3)c2c1)(c1ccc(F)cc1)c1cn(C2CC2)nn1 [Example 271, (S)-8-chloro-6-(((1-cyclopropyl-1H-1,2,3-triazol-4-yl)(4-fluorophenyl)methyl-d)amino)-4-((2-(pyridin-3-yl)ethyl)amino)quinoline-3-carbonitrile] | 5.34 | 6.36 |
| CC[C@@H](Nc1c(C#N)cnc2c(Cl)cc(N[C@@H](c3cccc(F)c3)c3cn(C4CC4)nn3)cc12)c1ccccc1 [Example 272, 8-chloro-6-(((S)-(1-cyclopropyl-1H-1,2,3-triazol-4-yl)(3-fluorophenyl)methyl)amino)-4-(((R)-1-phenylpropyl)amino)quinoline-3-carbonitrile] | 6.67 | 7.92 |
| CC[C@@H](Nc1c(C#N)cnc2c(Cl)cc(N[C@@H](c3cccc(Cl)c3)c3cn(C4CC4)nn3)cc12)c1ccccc1 [Example 273, 8-chloro-6-(((S)-(3-chlorophenyl)(1-cyclopropyl-1H-1,2,3-triazol-4-yl)methyl)amino)-4-(((R)-1-phenylpropyl)amino)quinoline-3-carbonitrile] | 6.75 | 7.89 |
| [2H][C@](Nc1cc(Cl)c2ncc(C#N)c(Nc3cccc(Cl)c3)c2c1)(c1cccc(C#N)c1)c1cn(C2CC2)nn1 [Example 274, (S)-8-chloro-4-((3-chlorophenyl)amino)-6-(((3-cyanophenyl)(1-cyclopropyl-1H-1,2,3-triazol-4-yl)methyl-d)amino)quinoline-3-carbonitrile] | 6.60 | 8.30 |
| [2H][C@](Nc1cc(Cl)c2ncc(C#N)c(Nc3c(F)ccc(Cl)c3F)c2c1)(c1cccc(C#N)c1)c1cn(C2CC2)nn1 [Example 275, (S)-8-chloro-4-((3-chloro-2,6-difluorophenyl)amino)-6-(((3-cyanophenyl)(1-cyclopropyl-1H-1,2,3-triazol-4-yl)methyl-d)amino)quinoline-3-carbonitrile] | 6.61 | 7.64 |
| [2H][C@](Nc1cc(Cl)c2ncc(C#N)c(NCC3(C)CCC3)c2c1)(c1cccc(C#N)c1)c1cn(C2CC2)nn1 [Example 276, (S)-8-chloro-6-(((3-cyanophenyl)(1-cyclopropyl-1H-1,2,3-triazol-4-yl)methyl-d)amino)-4-(((1-methylcyclobutyl)methyl)amino) quinoline-3-carbonitrile] | 6.78 | 8.52 |

Source: patent US10316017B2, “COT modulators and methods of use thereof” (Gilead Sciences, Inc., priority 2015, dated 2019)
